These molecules were tested on HCC1937 (assay: normalised response (% of control), CellTiter-Glo; higher = more viable cells (100 = DMSO, 0 = benzethonium chloride kill control)). Settings: incubation time: 72 h.
How it was run: (§1)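 Two readouts were taken after 72 h: CellTox Green fluorescence (485/520 nm) first, then CellTiter-Glo luminescence after 10 min at room temperature. Breast cancer cell lines had been seeded as 20 µl suspension into 384-well plates holding compound at 5 concentrations in 10-fold steps across a compound-specific 10,000-fold range. Each value is a normalised signal at a single concentration, with plates scaled to 0.1 % DMSO (100) and a positive kill control (0).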

Row | Structure (SMILES) | normalised response [%]
1 | CC[C@H](CO)Nc1nc(NCc2ccccc2)c2ncn(C(C)C)c2n1 [Seliciclib] (1000 nM) | 105
2 | C=CCN(/C=C1/C(=O)O[C@H](COC)[C@@]2(C)C1=C(O)C(=O)C1=C2[C@H](OC(C)=O)C[C@]2(C)C(=O)CC[C@@H]12)CC=C [Sonolisib] (1 nM) | 101
3 | C=CCN(/C=C1/C(=O)O[C@H](COC)[C@@]2(C)C1=C(O)C(=O)C1=C2[C@H](OC(C)=O)C[C@]2(C)C(=O)CC[C@@H]12)CC=C [Sonolisib] (10 nM) | 106
4 | C=CCN(/C=C1/C(=O)O[C@H](COC)[C@@]2(C)C1=C(O)C(=O)C1=C2[C@H](OC(C)=O)C[C@]2(C)C(=O)CC[C@@H]12)CC=C [Sonolisib] (1000 nM) | 99.8
5 | O=[N+]([O-])c1ccc2c(c1)S(=O)(=O)C=C2 [Stattic] (5 nM) | 94.6
6 | CC(C)n1cnc2c(NCCc3ccc(O)cc3)nc(-c3csc4ccccc34)nc21 [StemRegenin 1] (1 nM) | 98.6
7 | CC(C)n1cnc2c(NCCc3ccc(O)cc3)nc(-c3csc4ccccc34)nc21 [StemRegenin 1] (10 nM) | 96.3

The molecules below were run on SK-BR-3 in the same assay as above. Settings: incubation time: 72 h.
How it was run: as §1

Row | Structure (SMILES) | normalised response [%]
8 | CN[C@@H](C)C(=O)N[C@H]1CN(C(=O)CC(C)C)CC[C@H]2CC[C@@H](C(=O)NC(c3ccccc3)c3ccccc3)N2C1=O [AT-406] (1000 nM) | 99.6
9 | CC1(COc2ccc3c(c2)ncn3-c2ccc3cccc(N4CCC(N)CC4)c3n2)COC1 [Crenolanib] (1000 nM) | 123
10 | CC(C)(C)c1nc(-c2cccc(NS(=O)(=O)c3c(F)cccc3F)c2F)c(-c2ccnc(N)n2)s1 [Dabrafenib] (250 nM) | 105
11 | Cc1nc(C(=O)NCC(=O)O)c(O)c2ccc(Oc3ccccc3)cc12 [FG-4592] (1000 nM) | 110
12 | CC[C@H](CO)Nc1nc(NCc2ccccc2)c2ncn(C(C)C)c2n1 [Seliciclib] (1000 nM) | 106
13 | C=CCN(/C=C1/C(=O)O[C@H](COC)[C@@]2(C)C1=C(O)C(=O)C1=C2[C@H](OC(C)=O)C[C@]2(C)C(=O)CC[C@@H]12)CC=C [Sonolisib] (1 nM) | 109
14 | C=CCN(/C=C1/C(=O)O[C@H](COC)[C@@]2(C)C1=C(O)C(=O)C1=C2[C@H](OC(C)=O)C[C@]2(C)C(=O)CC[C@@H]12)CC=C [Sonolisib] (10 nM) | 123
15 | C=CCN(/C=C1/C(=O)O[C@H](COC)[C@@]2(C)C1=C(O)C(=O)C1=C2[C@H](OC(C)=O)C[C@]2(C)C(=O)CC[C@@H]12)CC=C [Sonolisib] (1000 nM) | 105
16 | O=[N+]([O-])c1ccc2c(c1)S(=O)(=O)C=C2 [Stattic] (5 nM) | 99.3
17 | CC(C)n1cnc2c(NCCc3ccc(O)cc3)nc(-c3csc4ccccc34)nc21 [StemRegenin 1] (1 nM) | 108
18 | CC(C)n1cnc2c(NCCc3ccc(O)cc3)nc(-c3csc4ccccc34)nc21 [StemRegenin 1] (10 nM) | 98.3

The molecules below were run on CAL-51 in the same assay as above. Settings: incubation time: 72 h.
How it was run: as §1

Row | Structure (SMILES) | normalised response [%]
19 | CN[C@@H](C)C(=O)N[C@H]1CN(C(=O)CC(C)C)CC[C@H]2CC[C@@H](C(=O)NC(c3ccccc3)c3ccccc3)N2C1=O [AT-406] (1000 nM) | 98.2
20 | CC1(COc2ccc3c(c2)ncn3-c2ccc3cccc(N4CCC(N)CC4)c3n2)COC1 [Crenolanib] (1000 nM) | 86.2
21 | CC(C)(C)c1nc(-c2cccc(NS(=O)(=O)c3c(F)cccc3F)c2F)c(-c2ccnc(N)n2)s1 [Dabrafenib] (250 nM) | 129
22 | Cc1nc(C(=O)NCC(=O)O)c(O)c2ccc(Oc3ccccc3)cc12 [FG-4592] (1000 nM) | 119
23 | CC[C@H](CO)Nc1nc(NCc2ccccc2)c2ncn(C(C)C)c2n1 [Seliciclib] (1000 nM) | 80.4
24 | C=CCN(/C=C1/C(=O)O[C@H](COC)[C@@]2(C)C1=C(O)C(=O)C1=C2[C@H](OC(C)=O)C[C@]2(C)C(=O)CC[C@@H]12)CC=C [Sonolisib] (1 nM) | 75.2
25 | C=CCN(/C=C1/C(=O)O[C@H](COC)[C@@]2(C)C1=C(O)C(=O)C1=C2[C@H](OC(C)=O)C[C@]2(C)C(=O)CC[C@@H]12)CC=C [Sonolisib] (10 nM) | 108
26 | C=CCN(/C=C1/C(=O)O[C@H](COC)[C@@]2(C)C1=C(O)C(=O)C1=C2[C@H](OC(C)=O)C[C@]2(C)C(=O)CC[C@@H]12)CC=C [Sonolisib] (1000 nM) | 77.5
27 | O=[N+]([O-])c1ccc2c(c1)S(=O)(=O)C=C2 [Stattic] (5 nM) | 102
28 | CC(C)n1cnc2c(NCCc3ccc(O)cc3)nc(-c3csc4ccccc34)nc21 [StemRegenin 1] (1 nM) | 81.3
29 | CC(C)n1cnc2c(NCCc3ccc(O)cc3)nc(-c3csc4ccccc34)nc21 [StemRegenin 1] (10 nM) | 68.8

Each molecule was assayed on MCF-10A in the same assay as above. Settings: incubation time: 72 h.
How it was run: as §1

Row | Structure (SMILES) | normalised response [%]
30 | CN[C@@H](C)C(=O)N[C@H]1CN(C(=O)CC(C)C)CC[C@H]2CC[C@@H](C(=O)NC(c3ccccc3)c3ccccc3)N2C1=O [AT-406] (1000 nM) | 107
31 | CC1(COc2ccc3c(c2)ncn3-c2ccc3cccc(N4CCC(N)CC4)c3n2)COC1 [Crenolanib] (1000 nM) | 113
32 | CC(C)(C)c1nc(-c2cccc(NS(=O)(=O)c3c(F)cccc3F)c2F)c(-c2ccnc(N)n2)s1 [Dabrafenib] (250 nM) | 125
33 | Cc1nc(C(=O)NCC(=O)O)c(O)c2ccc(Oc3ccccc3)cc12 [FG-4592] (1000 nM) | 113
34 | CC[C@H](CO)Nc1nc(NCc2ccccc2)c2ncn(C(C)C)c2n1 [Seliciclib] (1000 nM) | 95.3
35 | C=CCN(/C=C1/C(=O)O[C@H](COC)[C@@]2(C)C1=C(O)C(=O)C1=C2[C@H](OC(C)=O)C[C@]2(C)C(=O)CC[C@@H]12)CC=C [Sonolisib] (1 nM) | 108
36 | C=CCN(/C=C1/C(=O)O[C@H](COC)[C@@]2(C)C1=C(O)C(=O)C1=C2[C@H](OC(C)=O)C[C@]2(C)C(=O)CC[C@@H]12)CC=C [Sonolisib] (10 nM) | 105
37 | C=CCN(/C=C1/C(=O)O[C@H](COC)[C@@]2(C)C1=C(O)C(=O)C1=C2[C@H](OC(C)=O)C[C@]2(C)C(=O)CC[C@@H]12)CC=C [Sonolisib] (1000 nM) | 97.6
38 | O=[N+]([O-])c1ccc2c(c1)S(=O)(=O)C=C2 [Stattic] (5 nM) | 111
39 | CC(C)n1cnc2c(NCCc3ccc(O)cc3)nc(-c3csc4ccccc34)nc21 [StemRegenin 1] (1 nM) | 106

Reference: the supplement of paper PMC4862054
